# From patent US20230093099A1, “COMPOUNDS AND METHODS OF TREATING CANCERS” (CULLGEN (SHANGHAI), INC., priority 2019, published 2023)
# Read-outs that look alike come from different tables or passages of the source.
# Key:
# Format in all cases: cell-based
# GSPT1 = target: T1, GSPT1 (Homo sapiens, UniProt P15170); experiment: Immunoblot of GSPT1 protein level in RS4;11 cells; conditions: 16 hours, immunoblot, read-out: concentration required to reduce GSPT1 by 50% (DC50)
# T1 construct: immunoblot of GSPT1 and tubulin expressed in RS4:11 cells; endogenous in cells; host or cells: RS4;11 cells
# T1 sequence (P15170 whole entry): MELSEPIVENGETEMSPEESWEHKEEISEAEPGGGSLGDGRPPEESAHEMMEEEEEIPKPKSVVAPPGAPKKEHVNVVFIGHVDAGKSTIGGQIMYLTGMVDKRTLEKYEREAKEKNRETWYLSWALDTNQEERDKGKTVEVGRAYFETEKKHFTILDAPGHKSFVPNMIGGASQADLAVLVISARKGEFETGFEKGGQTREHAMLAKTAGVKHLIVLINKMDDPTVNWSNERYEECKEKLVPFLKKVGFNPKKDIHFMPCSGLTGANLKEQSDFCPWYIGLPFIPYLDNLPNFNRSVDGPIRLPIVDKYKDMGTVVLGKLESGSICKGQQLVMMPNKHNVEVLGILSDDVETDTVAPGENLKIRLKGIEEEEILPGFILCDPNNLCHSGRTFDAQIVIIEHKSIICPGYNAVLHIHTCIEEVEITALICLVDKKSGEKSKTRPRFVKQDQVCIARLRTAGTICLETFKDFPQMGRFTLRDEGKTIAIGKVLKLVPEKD
# Method: RS4;11 cells were treated with compounds at indicated concentrations for 16 hours. […] The concentrations required to reduce GSPT1 by 50% (DC50) were below 2 nM for compound JA-189 and 10 nM JA213.
# (§1) HEL, RS4;11, MV4;11, Kasumi-1 and other cells were cultured at 37° C. with 5% CO2 in RPMI 1640 or DMEM Medium supplemented with 10% fetal bovine serum. Cells were authenticated using the short tandem repeat (STR) assays. Mycoplasma test results were negative.
# (§2) Rabbit anti-JAK1 antibody (3344S), anti-JAK2 antibody (3230S), anti-JAK3 antibody (8827S), anti-TYK2 antibody (14193S), anti-FLT3 antibody (3462S), anti-RET antibody (14556S), anti-phospho-STAT3 (Tyr705) antibody (9145S) and anti-phospho-STAT5 (Tyr694) antibody (4322S) were purchased from Cell Signaling Technology. Rabbit anti-GSPT1 antibody (ab126090) was purchased from Abcam. HRP-conjugated anti-α-tubulin antibody was produced in house. Media and other cell culture reagents were purchased from Thermo Fisher. The CellTiter-Glo Luminescent Assay kit was purchased from Promega.
# (§3) Cultured cells were washed with cold PBS once and lysed in cold RIPA buffer supplemented with protease inhibitors and phosphatase inhibitors (Beyotime Biotechnology). The solutions were then incubated at 4° C. for 30 minutes with gentle agitation to fully lyse cells. Cell lysates were centrifuged at 13,000 rpm for 10 minutes at 4° C. and pellets were discarded. Total protein concentrations in the lysates were determined by BCA assays (Beyotime Biotechnology). Cell lysates were mixed with Laemmli loading buffer to 1× and heated at 99° C. for 5 min. Proteins were resolved on SDS-PAGE and visualized by chemiluminescence. Images were taken by a ChemiDoc MP Imaging system (Bio-Rad). Protein bands were quantitated using the accompanied software provided by Bio-Rad.
# JAK1 = target: T2, JAK1 (Homo sapiens, UniProt P23458); experiment: Immunoblot of JAK1 protein level in RS4;11 cells; conditions: 24 hours, immunoblot, read-out: concentration required to reduce JAK1 by 50% (DC50)
# T2 construct: immunoblot of JAK1/3 proteins expressed in RS4;11 cells; endogenous in cells; host or cells: RS4;11 cells
# T2 sequence (P23458 whole entry): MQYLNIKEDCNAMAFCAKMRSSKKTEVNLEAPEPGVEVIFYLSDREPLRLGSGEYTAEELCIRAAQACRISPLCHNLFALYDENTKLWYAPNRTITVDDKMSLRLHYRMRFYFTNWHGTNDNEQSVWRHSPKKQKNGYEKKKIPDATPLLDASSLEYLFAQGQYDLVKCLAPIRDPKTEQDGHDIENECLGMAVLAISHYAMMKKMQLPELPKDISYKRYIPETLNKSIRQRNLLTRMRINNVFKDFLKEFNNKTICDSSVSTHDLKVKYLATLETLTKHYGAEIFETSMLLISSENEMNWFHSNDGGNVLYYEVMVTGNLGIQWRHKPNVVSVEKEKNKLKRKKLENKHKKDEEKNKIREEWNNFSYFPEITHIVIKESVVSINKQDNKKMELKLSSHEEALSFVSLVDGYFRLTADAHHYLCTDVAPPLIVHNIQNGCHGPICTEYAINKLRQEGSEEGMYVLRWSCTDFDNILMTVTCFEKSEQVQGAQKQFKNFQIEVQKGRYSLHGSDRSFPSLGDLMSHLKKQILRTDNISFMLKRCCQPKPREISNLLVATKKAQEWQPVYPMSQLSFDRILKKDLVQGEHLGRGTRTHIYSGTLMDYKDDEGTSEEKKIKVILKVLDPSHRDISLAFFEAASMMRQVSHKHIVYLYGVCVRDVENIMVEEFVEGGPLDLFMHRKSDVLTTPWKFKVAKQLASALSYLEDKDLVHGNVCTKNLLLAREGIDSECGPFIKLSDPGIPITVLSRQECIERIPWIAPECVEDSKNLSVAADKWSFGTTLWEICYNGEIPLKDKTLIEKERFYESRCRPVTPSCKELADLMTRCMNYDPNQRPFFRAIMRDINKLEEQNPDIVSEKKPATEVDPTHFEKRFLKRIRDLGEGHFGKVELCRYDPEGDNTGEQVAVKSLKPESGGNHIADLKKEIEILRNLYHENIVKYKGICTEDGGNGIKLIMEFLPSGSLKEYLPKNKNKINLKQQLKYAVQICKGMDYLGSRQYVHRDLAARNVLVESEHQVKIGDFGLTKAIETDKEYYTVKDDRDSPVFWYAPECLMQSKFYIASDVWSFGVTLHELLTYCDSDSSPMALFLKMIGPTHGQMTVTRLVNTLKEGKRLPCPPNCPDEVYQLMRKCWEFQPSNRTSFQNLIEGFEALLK
# Method: RS4;11 cells were treated with compounds at indicated concentrations for 24 hours. […] The concentrations required to reduce JAK1 by 50% (DC50) were below 5 nM and 35 nM for compound JA-189 and JA213, respectively.
# as §1, §2, §3
# RS4;11 cells = experiment: Cell viability assay (CellTiter-Glo) in RS4;11 cells; conditions: cell viability, read-out: IC50
# In short: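 Three-day compound treatment of RS4;11 ALL cells (5000/well, 3-fold dilution series of 8 or 12 points), with IC50 from a nonlinear least-squares fit to CellTiter-Glo viability data.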
# KM12 cells = experiment: Cell viability assay (CellTiter-Glo) in KM12 cells; conditions: KM12, colorectal carcinoma, 3 days
# Method: (§4) MV4;11, RS4;11, Kasumi-1, HEL and other cells were treated with NVP-BSK805, TG101209 or selected degraders for 3 days at indicated concentrations following a 3-fold serial dilution.
# as §1
# (§5) Cells were seeded at a density of 5000 cells per well in 96-well assay plates and treated with test compounds following a 8-point or 12-point 3-fold serial dilution. Three days later, cell viability was determined using the CellTiter-Glo assay kit according to the manufacturer's instructions. The dose-response curves were determined and IC50 values were calculated using the GraphPad Prism software following a nonlinear regression (least squares fit) method.
# CCRF-CEM cells = experiment: Cell viability assay (CellTiter-Glo) in CCRF-CEM cells; conditions: T-ALL, 3 days
# Method: as §4, §1, §5
# Kasumi-1 cells = experiment: Cell viability assay (CellTiter-Glo) in Kasumi-1 cells; conditions: Kasumi-1, AML, cell viability, 3 days
# Method: as §4, §1, §5
# HEL cells = experiment: Cell viability assay (CellTiter-Glo) in HEL cells; conditions: erythroleukemia, cell viability, 3 days
# Method: as §4, §1, §5
# MEG-01 cells = experiment: Cell viability assay (CellTiter-Glo) in MEG-01 cells; conditions: MEG-01, CML, 3 days
# Method: as §4, §1, §5
# MOLM-13 cells = experiment: Cell viability assay (CellTiter-Glo) in MOLM-13 cells; conditions: MOLM-13, AML, 3 days
# Method: as §4, §1, §5
# SU-DHL-1 cells = experiment: Cell viability assay (CellTiter-Glo) in SU-DHL-1 cells; conditions: SU-DHL-1, large cell lymphoma, 3 days
# Method: as §4, §1, §5
# AMO-1 cells = experiment: Cell viability assay (CellTiter-Glo) in AMO-1 cells; conditions: AMO-1, Multiple Myeloma, 3 days
# Method: as §4, §1, §5
# MOLT-4 cells = experiment: Cell viability assay (CellTiter-Glo) in MOLT-4 cells; conditions: MOLT-4, T-ALL, 3 days
# Method: as §4, §1, §5
# HL-60 cells = experiment: Cell viability assay (CellTiter-Glo) in HL-60 cells; conditions: HL-60, APL, 3 days
# Method: as §4, §1, §5
# WSU-DLCL2 cells = experiment: Cell viability assay (CellTiter-Glo) in WSU-DLCL2 cells; conditions: WSU-DLCL2, DLBCL, 3 days
# Method: as §4, §1, §5
# Jurkat cells = experiment: Cell viability assay (CellTiter-Glo) in Jurkat cells; conditions: T-ALL, 3 days
# Method: as §4, §1, §5
# MM.1S cells = experiment: Cell viability assay (CellTiter-Glo) in MM.1S cells; conditions: Multiple Myeloma, 3 days
# Method: as §4, §1, §5
# NCI-H929 cells = experiment: Cell viability assay (CellTiter-Glo) in NCI-H929 cells; conditions: NCI-H929, Multiple Myeloma, 3 days
# Method: as §4, §1, §5
# NOMO-1 cells = experiment: Cell viability assay (CellTiter-Glo) in NOMO-1 cells; conditions: NOMO-1, AML, 3 days
# Method: as §4, §1, §5
# MV4;11 cells = experiment: Cell viability assay (CellTiter-Glo) in MV4;11 cells; conditions: MV4;11, AML, cell viability, 3 days
# Method: as §4, §1, §5
# Pfeiffer cells = experiment: Cell viability assay (CellTiter-Glo) in Pfeiffer cells; conditions: DLBCL, 3 days
# Method: as §4, §1, §5
# [1] = Homo sapiens, 72 h, RS4;11 cells, 3 days, CellTiter-Glo
compound,measurement,setting,value
CS(=O)(=O)c1ccc(-c2cccc3nc(Nc4ccc(N5CCN(CC(=O)NCCCCCCCCNc6ccc7c(c6)C(=O)N(C6CCC(=O)NC6=O)C7=O)CC5)cc4)nn23)cc1 (stereo not shown) [JA213],DC50,GSPT1,< 0.01 µM
same,DC50,JAK1,< 0.035 µM
"Cn1c(=O)n(C2CCC(=O)NC2=O)c2cccc(NCCCCC(=O)N3CCC(n4cc(-c5cnc6cccc(-c7cc(F)c(CN8CCOCC8)c(F)c7)c6n5)cn4)CC3)c21 (stereo not shown) [JA-286, 3-(4-((5-(4-(4-(8-(3,5-Difluoro-4-(morpholinomethyl)phenyl)quinoxalin-2-yl)-1H-pyrazol-1-yl)piperidin-1-yl)-5-oxopentyl)amino)-3-methyl-2-oxo-2,3-dihydro-1H-benzo[d]imidazol-1-yl)piperidine-2,6-dione]",IC50,RS4;11 cells; [1],> 0.5 µM
"Cn1c(=O)n(C2CCC(=O)NC2=O)c2ccc(NCCCCC(=O)N3CCC(n4cc(-c5cnc6cccc(-c7cc(F)c(CN8CCOCC8)c(F)c7)c6n5)cn4)CC3)cc21 (stereo not shown) [JA-287, 3-(5-((5-(4-(4-(8-(3,5-Difluoro-4-(morpholinomethyl)phenyl)quinoxalin-2-yl)-1H-pyrazol-1-yl)piperidin-1-yl)-5-oxopentyl)amino)-3-methyl-2-oxo-2,3-dihydro-1H-benzo[d]imidazol-1-yl)piperidine-2,6-dione]",IC50,RS4;11 cells; [1],> 0.5 µM
"Cn1c(=O)n(C2CCC(=O)NC2=O)c2ccc(NCCCCCC(=O)N3CCC(n4cc(-c5cnc6cccc(-c7cc(F)c(CN8CCOCC8)c(F)c7)c6n5)cn4)CC3)cc21 (stereo not shown) [JA-288, 3-(5-((6-(4-(4-(8-(3,5-Difluoro-4-(morpholinomethyl)phenyl)quinoxalin-2-yl)-1H-pyrazol-1-yl)piperidin-1-yl)-6-oxohexyl)amino)-3-methyl-2-oxo-2,3-dihydro-1H-benzo[d]imidazol-1-yl)piperidine-2,6-dione]",IC50,RS4;11 cells; [1],> 0.5 µM
"Cn1c(=O)n(C2CCC(=O)NC2=O)c2ccc(NCCCCCCC(=O)N3CCC(n4cc(-c5cnc6cccc(-c7cc(F)c(CN8CCOCC8)c(F)c7)c6n5)cn4)CC3)cc21 (stereo not shown) [JA-289, 3-(5-((7-(4-(4-(8-(3,5-Difluoro-4-(morpholinomethyl)phenyl)quinoxalin-2-yl)-1H-pyrazol-1-yl)piperidin-1-yl)-7-oxoheptyl)amino)-3-methyl-2-oxo-2,3-dihydro-1H-benzo[d]imidazol-1-yl)piperidine-2,6-dione]",IC50,RS4;11 cells; [1],> 0.5 µM
"Cn1c(=O)n(C2CCC(=O)NC2=O)c2cccc(NCCCCC(=O)N3CCN(c4ccc(Nc5nc6cccc(-c7ccc(S(C)(=O)=O)cc7)n6n5)cc4)CC3)c21 (stereo not shown) [JA-290, 3-(3-Methyl-4-((5-(4-(4-((5-(4-(methylsulfonyl)phenyl)-[1,2,4]triazolo[1,5-a]pyridin-2-yl)amino)phenyl)piperazin-1-yl)-5-oxopentyl)amino)-2-oxo-2,3-dihydro-1H-benzo[d]imidazol-1-yl)piperidine-2,6-dione]",IC50,RS4;11 cells; [1],> 0.5 µM
"Cn1c(=O)n(C2CCC(=O)NC2=O)c2ccc(NCCCCC(=O)N3CCN(c4ccc(Nc5nc6cccc(-c7ccc(S(C)(=O)=O)cc7)n6n5)cc4)CC3)cc21 (stereo not shown) [JA-291, 3-(3-Methyl-5-((5-(4-(4-((5-(4-(methylsulfonyl)phenyl)-[1,2,4]triazolo[1,5-a]pyridin-2-yl)amino)phenyl)piperazin-1-yl)-5-oxopentyl)amino)-2-oxo-2,3-dihydro-1H-benzo[d]imidazol-1-yl)piperidine-2,6-dione]",IC50,RS4;11 cells; [1],> 0.5 µM
"Cn1c(=O)n(C2CCC(=O)NC2=O)c2ccc(NCCCCCC(=O)N3CCN(c4ccc(Nc5nc6cccc(-c7ccc(S(C)(=O)=O)cc7)n6n5)cc4)CC3)cc21 (stereo not shown) [JA-292, 3-(3-Methyl-5-((6-(4-(4-((5-(4-(methylsulfonyl)phenyl)-[1,2,4]triazolo[1,5-a]pyridin-2-yl)amino)phenyl)piperazin-1-yl)-6-oxohexyl)amino)-2-oxo-2,3-dihydro-1H-benzo[d]imidazol-1-yl)piperidine-2,6-dione]",IC50,RS4;11 cells; [1],> 0.5 µM
"Cn1c(=O)n(C2CCC(=O)NC2=O)c2ccc(NCCCCCCC(=O)N3CCN(c4ccc(Nc5nc6cccc(-c7ccc(S(C)(=O)=O)cc7)n6n5)cc4)CC3)cc21 (stereo not shown) [JA-293, 3-(3-Methyl-5-((7-(4-(4-((5-(4-(methylsulfonyl)phenyl)-[1,2,4]triazolo[1,5-a]pyridin-2-yl)amino)phenyl)piperazin-1-yl)-7-oxoheptyl)amino)-2-oxo-2,3-dihydro-1H-benzo[d]imidazol-1-yl)piperidine-2,6-dione]",IC50,RS4;11 cells; [1],> 0.5 µM
"Fc1cc(-c2cccc3ncc(-c4cnn(C5CCNCC5)c4)nc23)cc(F)c1CN1CCOCC1 [NVP-BSK805, reference compound]",IC50,KM12 cells,2.86 µM
same,IC50,CCRF-CEM cells,> 10 µM
same,IC50,Kasumi-1 cells,0.758 µM
same,IC50,HEL cells,1.04 µM
same,IC50,MEG-01 cells,8.87 µM
same,IC50,MOLM-13 cells,0.201 µM
same,IC50,SU-DHL-1 cells,> 10 µM
same,IC50,AMO-1 cells,> 10 µM
same,IC50,MOLT-4 cells,> 10 µM
same,IC50,HL-60 cells,> 10 µM
same,IC50,"RS4;11 cells; RS4;11, B-ALL, 3 days (Table 3)",> 10 µM
same,IC50,"RS4;11 cells; RS4;11 cells, 3 days, CellTiter-Glo",> 10 µM
same,IC50,WSU-DLCL2 cells,> 10 µM
same,IC50,Jurkat cells,2.52 µM
same,IC50,MM.1S cells,> 10 µM
same,IC50,NCI-H929 cells,> 10 µM
same,IC50,NOMO-1 cells,6.28 µM
same,IC50,MV4;11 cells,0.391 µM
same,IC50,Pfeiffer cells,> 10 µM
"Cc1cnc(Nc2ccc(N3CCN(C)CC3)cc2)nc1Nc1cccc(S(=O)(=O)NC(C)(C)C)c1 [TG101209, reference compound]",IC50,"CCRF-CEM cells; Homo sapiens, 72 h",3.96 µM
same,IC50,"Kasumi-1 cells; Homo sapiens, 72 h",0.529 µM
same,IC50,"HEL cells; Homo sapiens, 72 h",1.2 µM
same,IC50,"MEG-01 cells; Homo sapiens, 72 h",7.12 µM
same,IC50,"MOLM-13 cells; Homo sapiens, 72 h",0.0482 µM
same,IC50,"SU-DHL-1 cells; Homo sapiens, 72 h",> 10 µM
same,IC50,"AMO-1 cells; Homo sapiens, AMO1, 72 h",4.78 µM
same,IC50,"MOLT-4 cells; Homo sapiens, 72 h",2.5 µM
same,IC50,"HL-60 cells; Homo sapiens, 72 h",> 10 µM
same,IC50,RS4;11 cells; [1],1.84 µM
same,IC50,"WSU-DLCL2 cells; Homo sapiens, WSUDLCL2, 72 h",1.07 µM
same,IC50,"Jurkat cells; Homo sapiens, 72 h",0.55 µM
same,IC50,"MM.1S cells; Homo sapiens, MM1.S, 72 h",6.11 µM
same,IC50,"NCI-H929 cells; Homo sapiens, 72 h",> 10 µM
same,IC50,"NOMO-1 cells; Homo sapiens, 72 h",1.3 µM
same,IC50,"MV4;11 cells; Homo sapiens, 72 h",0.194 µM
same,IC50,"Pfeiffer cells; Homo sapiens, 72 h",> 10 µM
